Assay results from PMC5218480 (PLoS ONE, 2017).

Tested on: MV-4-11 cells
Assay: Gene expression microarray analysis (Affymetrix PrimeView) and GSEA
Format: cell-based, human
Set-up: RFU PODN (11730768_x_at) / Fold change /veh PODN (11730768_x_at) / RFU LINC00158 (11744669_a_at) / Fold change /veh LINC00158 (11744669_a_at) / RFU DUSP10 (11751237_a_at) / Fold change /veh DUSP10 (11751237_a_at) / RFU ID3 (11757404_x_at) / Fold change /veh ID3 (11757404_x_at) / RFU PLEKHG5 (11737974_s_at) / Fold change /veh PLEKHG5 (11737974_s_at) / RFU LRRC4B (11730491_at) / Fold change /veh LRRC4B (11730491_at) / RFU GIMAP4 (11747438_a_at) / Fold change /veh GIMAP4 (11747438_a_at) / RFU KRT8 (11758183_x_at) / Fold change /veh KRT8 (11758183_x_at) / RFU CNN1 (11734310_a_at) / Fold change /veh CNN1 (11734310_a_at) / RFU VPS37D (11726825_at) / Fold change /veh VPS37D (11726825_at) / RFU C10orf10 (11716522_x_at) / Fold change /veh C10orf10 (11716522_x_at) / RFU KIR2DL2 /// KIR2DL4 /// KIR2DL5A /// KIR2DL5B /// KIR2DS1 /// KIR2DS2 /// KIR2DS3 /// KIR2DS4 /// KIR3DL3 /// KIR3DL3 /// KIR3DS1 (11738374_at) / Fold change /veh KIR2DL2 /// KIR2DL4 /// KIR2DL5A /// KIR2DL5B /// KIR2DS1 /// KIR2DS2 /// KIR2DS3 /// KIR2DS4 /// KIR3DL3 /// KIR3DL3 /// KIR3DS1 (11738374_at) / RFU C1QL1 (11718748_at) / Fold change /veh C1QL1 (11718748_at) / RFU TMPRSS4 (11747572_a_at) / Fold change /veh TMPRSS4 (11747572_a_at) / RFU HAMP (11756126_x_at) / Fold change /veh HAMP (11756126_x_at) / RFU RNFT2 (11725882_a_at) / Fold change /veh RNFT2 (11725882_a_at) / RFU NR4A2 (11747474_a_at) / Fold change /veh NR4A2 (11747474_a_at) / RFU ABCC12 (11746883_a_at) / Fold change /veh ABCC12 (11746883_a_at) / RFU TMEM136 (11760407_x_at) / Fold change /veh TMEM136 (11760407_x_at) / RFU CLDN22 /// WWC2 (11732394_at) / Fold change /veh CLDN22 /// WWC2 (11732394_at) / RFU HLA-DPB1 (11760878_x_at) / Fold change /veh HLA-DPB1 (11760878_x_at) / RFU SPINT1 (11716480_a_at) / Fold change /veh SPINT1 (11716480_a_at) / RFU GAP43 (11754022_s_at) / Fold change /veh GAP43 (11754022_s_at) / RFU A4GNT (11735810_at) / Fold change /veh A4GNT (11735810_at) / RFU PRB3 (11715151_x_at) / Fold change /veh PRB3 (11715151_x_at) / RFU TUBB4B (11761932_at) / Fold change /veh TUBB4B (11761932_at) / RFU CAPN14 (11732068_a_at) / Fold change /veh CAPN14 (11732068_a_at) / RFU TMCC2 (11721928_a_at) / Fold change /veh TMCC2 (11721928_a_at) / RFU IRGQ (11745062_a_at) / Fold change /veh IRGQ (11745062_a_at) / RFU FAM174B (11720279_a_at) / Fold change /veh FAM174B (11720279_a_at) / RFU TMPRSS4 (11748680_a_at) / Fold change /veh TMPRSS4 (11748680_a_at) / RFU FAM212B (11763350_a_at) / Fold change /veh FAM212B (11763350_a_at) / RFU PLEKHG5 (11743358_a_at) / Fold change /veh PLEKHG5 (11743358_a_at) / RFU ZSCAN30 (11745921_a_at) / Fold change /veh ZSCAN30 (11745921_a_at) / RFU CMKLR1 (11741424_a_at) / Fold change /veh CMKLR1 (11741424_a_at) / RFU LOC101060620 /// MAPK8IP1 (11723275_at) / Fold change /veh LOC101060620 /// MAPK8IP1 (11723275_at) / RFU SPTSSB (11747773_x_at) / Fold change /veh SPTSSB (11747773_x_at) / RFU PRSS12 (11739890_at) / Fold change /veh PRSS12 (11739890_at) / RFU BIN1 (11741810_x_at) / Fold change /veh BIN1 (11741810_x_at) / RFU WNT11 (11732464_a_at) / Fold change /veh WNT11 (11732464_a_at) / RFU C10orf10 (11716521_a_at) / Fold change /veh C10orf10 (11716521_a_at) / RFU C5orf56 (11738089_at) / Fold change /veh C5orf56 (11738089_at) / RFU CYB561 (11721691_x_at) / Fold change /veh CYB561 (11721691_x_at) / RFU ANKRD19P (11752326_a_at) / Fold change /veh ANKRD19P (11752326_a_at) / RFU OR2T12 /// OR2T33 /// OR2T8 (11738714_s_at) / Fold change /veh OR2T12 /// OR2T33 /// OR2T8 (11738714_s_at) / RFU VCAN (11748164_a_at) / Fold change /veh VCAN (11748164_a_at) / RFU JSRP1 (11732532_at) / Fold change /veh JSRP1 (11732532_at) / RFU KRTAP10-11 (11738290_x_at) / Fold change /veh KRTAP10-11 (11738290_x_at) / RFU MYO3A (11730013_a_at) / Fold change /veh MYO3A (11730013_a_at) / RFU EBF3 (11725865_a_at) / Fold change /veh EBF3 (11725865_a_at) / RFU CAMK2N1 (11719241_x_at) / Fold change /veh CAMK2N1 (11719241_x_at) / RFU C5orf56 (11738088_a_at) / Fold change /veh C5orf56 (11738088_a_at) / RFU OLFML3 (11715873_a_at) / Fold change /veh OLFML3 (11715873_a_at) / RFU LOC100653217 /// NTM (11731650_a_at) / Fold change /veh LOC100653217 /// NTM (11731650_a_at) / RFU MAPK11 (11762145_a_at) / Fold change /veh MAPK11 (11762145_a_at) / RFU FIZ1 (11724087_x_at) / Fold change /veh FIZ1 (11724087_x_at) / RFU OASL (11726364_x_at) / Fold change /veh OASL (11726364_x_at) / RFU SOX15 (11748057_x_at) / Fold change /veh SOX15 (11748057_x_at) / RFU CD79A (11719716_a_at) / Fold change /veh CD79A (11719716_a_at) / RFU HIST1H1D (11736915_at) / Fold change /veh HIST1H1D (11736915_at) / RFU CASKIN2 (11723855_a_at) / Fold change /veh CASKIN2 (11723855_a_at) / RFU LOC730098 (11760151_x_at) / Fold change /veh LOC730098 (11760151_x_at) / RFU OR4N2 (11742367_at) / Fold change /veh OR4N2 (11742367_at) / RFU PRRT2 (11749266_a_at) / Fold change /veh PRRT2 (11749266_a_at) / RFU SNX32 (11753110_a_at) / Fold change /veh SNX32 (11753110_a_at) / RFU CDHR5 (11726645_a_at) / Fold change /veh CDHR5 (11726645_a_at) / RFU RCAN1 (11760418_a_at) / Fold change /veh RCAN1 (11760418_a_at) / RFU FAM167A (11723789_a_at) / Fold change /veh FAM167A (11723789_a_at) / RFU FAM26E (11764081_at) / Fold change /veh FAM26E (11764081_at) / RFU ISYNA1 (11749810_s_at) / Fold change /veh ISYNA1 (11749810_s_at) / RFU ACY1 (11761880_at) / Fold change /veh ACY1 (11761880_at) / RFU 11764098_at / Fold change /veh 11764098_at / RFU SAMD14 (11745864_x_at) / Fold change /veh SAMD14 (11745864_x_at) / RFU NPB (11741838_a_at) / Fold change /veh NPB (11741838_a_at) / RFU TMPRSS6 (11731388_a_at) / Fold change /veh TMPRSS6 (11731388_a_at) / RFU KRTAP10-2 (11738614_at) / Fold change /veh KRTAP10-2 (11738614_at) / RFU ARHGAP8 /// PRR5-ARHGAP8 (11727945_x_at) / Fold change /veh ARHGAP8 /// PRR5-ARHGAP8 (11727945_x_at) / RFU KRTAP5-7 /// NADSYN1 (11734609_at) / Fold change /veh KRTAP5-7 /// NADSYN1 (11734609_at) / RFU RASL12 (11751679_a_at) / Fold change /veh RASL12 (11751679_a_at) / RFU CDKN2B (11736163_a_at) / Fold change /veh CDKN2B (11736163_a_at) / RFU PRF1 (11729649_at) / Fold change /veh PRF1 (11729649_at) / RFU, ZNF638 /// ZNF638-IT1 / Fold change vs veh, ZNF638 /// ZNF638-IT1 / RFU, PANK3 / Fold change vs veh, PANK3 / RFU, SH3YL1 / Fold change vs veh, SH3YL1 / RFU, ZEB2 / Fold change vs veh, ZEB2 / RFU, NRIP1 / Fold change vs veh, NRIP1 / RFU, PTTG1IP / Fold change vs veh, PTTG1IP / RFU, CAPN2 / Fold change vs veh, CAPN2 / RFU, MED14 / Fold change vs veh, MED14 / RFU, SNORA58 / Fold change vs veh, SNORA58 / RFU, C1orf63 / Fold change vs veh, C1orf63 / RFU, LRRFIP1 / Fold change vs veh, LRRFIP1 / RFU, NDUFAF7 / Fold change vs veh, NDUFAF7 / RFU, SLC12A2 / Fold change vs veh, SLC12A2 / RFU, IBTK / Fold change vs veh, IBTK / RFU, ESF1 / Fold change vs veh, ESF1 / Fold change vs veh, TMEM50B / RFU, TAOK1 / Fold change vs veh, TAOK1 / RFU, ACBD3 / Fold change vs veh, ACBD3 / RFU, TMA16 / Fold change vs veh, TMA16 / RFU, RWDD3 / Fold change vs veh, RWDD3 / RFU, BCAT1 / Fold change vs veh, BCAT1 / RFU, EDEM3 / Fold change vs veh, EDEM3 / RFU, TMEM33 / Fold change vs veh, TMEM33 / RFU, WDR75 / Fold change vs veh, WDR75 / RFU, AHCTF1 / Fold change vs veh, AHCTF1 / RFU, TFRC / Fold change vs veh, TFRC / RFU, ZDHHC17 / Fold change vs veh, ZDHHC17 / RFU, NOM1 / Fold change vs veh, NOM1 / RFU, ARL8B / Fold change vs veh, ARL8B / RFU, ZBTB11 / Fold change vs veh, ZBTB11 / RFU, TAMM41 / Fold change vs veh, TAMM41 / RFU, KIAA1704 /// LOC100996395 / Fold change vs veh, KIAA1704 /// LOC100996395 / RFU, ING1 / Fold change vs veh, ING1 / RFU, TRMT61B / Fold change vs veh, TRMT61B / RFU, FUBP3 / Fold change vs veh, FUBP3 / RFU, TP53 / Fold change vs veh, TP53 / RFU, TNKS2 / Fold change vs veh, TNKS2 / RFU, ZFP14 / Fold change vs veh, ZFP14 / RFU, ACTR2 / Fold change vs veh, ACTR2 / RFU, PPP3R1 / Fold change vs veh, PPP3R1 / RFU, PIK3R1 / Fold change vs veh, PIK3R1 / RFU, HNRNPA1 / Fold change vs veh, HNRNPA1 / RFU, RNF170 / Fold change vs veh, RNF170 / RFU, ZNF28 / Fold change vs veh, ZNF28 / RFU, RNGTT / Fold change vs veh, RNGTT / RFU, OGT / Fold change vs veh, OGT / RFU, BRD1 / Fold change vs veh, BRD1 / RFU, MARS / Fold change vs veh, MARS / RFU, ZNF655 / Fold change vs veh, ZNF655 / RFU, FAHD1 / Fold change vs veh, FAHD1 / RFU, BDP1 / Fold change vs veh, BDP1 / RFU, LRRCC1 / Fold change vs veh, LRRCC1 / RFU, ARID1A / Fold change vs veh, ARID1A / RFU, ZNF146 / Fold change vs veh, ZNF146 / RFU, ZNF330 / Fold change vs veh, ZNF330 / RFU, GPN3 / Fold change vs veh, GPN3 / RFU, C9orf123 / Fold change vs veh, C9orf123 / RFU, N4BP2L2 / Fold change vs veh, N4BP2L2 / RFU, ARFIP1 / Fold change vs veh, ARFIP1 / RFU, FAM179B / Fold change vs veh, FAM179B / RFU, BCL10 / Fold change vs veh, BCL10 / RFU, UHRF1BP1L / Fold change vs veh, UHRF1BP1L / RFU, BET1 / Fold change vs veh, BET1 / RFU, CNOT2 / Fold change vs veh, CNOT2 / RFU, ZNF268 / Fold change vs veh, ZNF268 / Fold change vs veh, ZNF507 / RFU, DGCR2 / Fold change vs veh, DGCR2 / RFU, WDSUB1 / Fold change vs veh, WDSUB1 / Fold change vs veh, HSP90B1 /// MIR3652 / RFU, ADSS / Fold change vs veh, ADSS / RFU, GK / Fold change vs veh, GK / RFU, ZNF148 / Fold change vs veh, ZNF148 / RFU, TAF9 / Fold change vs veh, TAF9 / RFU, SLC1A5 / Fold change vs veh, SLC1A5 / RFU, SLMO2 / Fold change vs veh, SLMO2 / RFU, ABCC4 / Fold change vs veh, ABCC4 / RFU, LOC101060439 /// RAP1B / Fold change vs veh, LOC101060439 /// RAP1B / RFU, RFX7 / Fold change vs veh, RFX7 / RFU, GTPBP10 / Fold change vs veh, GTPBP10 / RFU, CNEP1R1 / Fold change vs veh, CNEP1R1 / RFU, BIVM-ERCC5 /// ERCC5 / Fold change vs veh, BIVM-ERCC5 /// ERCC5 / RFU, ILF3 / Fold change vs veh, ILF3 / RFU 11762660_at / Fold change /veh 11762660_at / RFU VCAN (11757783_s_at) / Fold change /veh VCAN (11757783_s_at) / RFU DDX43 (11728927_at) / Fold change /veh DDX43 (11728927_at) / RFU KRT8 (11758188_x_at) / Fold change /veh KRT8 (11758188_x_at) / RFU NKD1 (11759106_at) / Fold change /veh NKD1 (11759106_at) / RFU SRD5A1 (11742802_a_at) / Fold change /veh SRD5A1 (11742802_a_at) / RFU TPSAB1 /// TPSB2 (11721975_s_at) / Fold change /veh TPSAB1 /// TPSB2 (11721975_s_at) / RFU GSTM3 (11746129_a_at) / Fold change /veh GSTM3 (11746129_a_at) / RFU IL23R (11737362_x_at) / Fold change /veh IL23R (11737362_x_at) / RFU TMEM51 (11727254_a_at) / Fold change /veh TMEM51 (11727254_a_at) / RFU PIWIL2 (11732686_x_at) / Fold change /veh PIWIL2 (11732686_x_at) / RFU ORM1 (11744905_x_at) / Fold change /veh ORM1 (11744905_x_at) / RFU CCDC152 (11743942_at) / Fold change /veh CCDC152 (11743942_at) / RFU ECM1 (11717891_a_at) / Fold change /veh ECM1 (11717891_a_at) / RFU IL23R (11748794_a_at) / Fold change /veh IL23R (11748794_a_at) / RFU TNFAIP8L3 (11732012_x_at) / Fold change /veh TNFAIP8L3 (11732012_x_at) / RFU MBOAT4 (11741988_at) / Fold change /veh MBOAT4 (11741988_at) / RFU 11764193_at / Fold change /veh 11764193_at / RFU TMEM53 (11763286_at) / Fold change /veh TMEM53 (11763286_at) / RFU MAGEB2 (11727129_at) / Fold change /veh MAGEB2 (11727129_at) / RFU TMEM200A (11744735_a_at) / Fold change /veh TMEM200A (11744735_a_at) / RFU CCDC152 (11751479_a_at) / Fold change /veh CCDC152 (11751479_a_at) / RFU FAM211A (11726209_a_at) / Fold change /veh FAM211A (11726209_a_at) / RFU RGS16 (11746705_a_at) / Fold change /veh RGS16 (11746705_a_at) / RFU VCAN (11755009_s_at) / Fold change /veh VCAN (11755009_s_at) / RFU RHOB (11743442_s_at) / Fold change /veh RHOB (11743442_s_at) / RFU RGS16 (11720943_a_at) / Fold change /veh RGS16 (11720943_a_at) / RFU RGS16 (11720944_at) / Fold change /veh RGS16 (11720944_at) / RFU, VPS4B / Fold change vs veh, VPS4B / RFU, CREB1 / Fold change vs veh, CREB1 / RFU, DNAJC13 / Fold change vs veh, DNAJC13 / RFU, GNAQ / Fold change vs veh, GNAQ / RFU, CDK5R1 / Fold change vs veh, CDK5R1 / RFU, ZRANB3 / Fold change vs veh, ZRANB3 / RFU, CUL4A / Fold change vs veh, CUL4A / RFU, CCNY / Fold change vs veh, CCNY / RFU, UFL1 / Fold change vs veh, UFL1 / RFU, COG3 / Fold change vs veh, COG3 / RFU, DIAPH2 / Fold change vs veh, DIAPH2 / RFU, SKA2 / Fold change vs veh, SKA2 / RFU, AFF3 / Fold change vs veh, AFF3 / RFU, LMF1 / Fold change vs veh, LMF1 / RFU, IPO11 / Fold change vs veh, IPO11 / RFU, DFFB / Fold change vs veh, DFFB / RFU, FOXP1 / Fold change vs veh, FOXP1 / RFU, CARD8 / Fold change vs veh, CARD8 / RFU, STRN3 / Fold change vs veh, STRN3 / RFU, ADK / Fold change vs veh, ADK / RFU, RASSF2 / Fold change vs veh, RASSF2 / RFU, WIPF1 / Fold change vs veh, WIPF1 / RFU, LARP1B / Fold change vs veh, LARP1B / RFU, RASA1 / Fold change vs veh, RASA1 / RFU, RB1 / Fold change vs veh, RB1 / RFU, PPFIA1 / Fold change vs veh, PPFIA1 / RFU, MAT2A / Fold change vs veh, MAT2A / RFU, CCT5 / Fold change vs veh, CCT5 / RFU, WDR92 / Fold change vs veh, WDR92 / RFU, CUX1 / Fold change vs veh, CUX1 / RFU, TTC7A / Fold change vs veh, TTC7A / RFU, TMEM135 / Fold change vs veh, TMEM135 / RFU, DEPTOR / Fold change vs veh, DEPTOR / RFU, CPM / Fold change vs veh, CPM / RFU, DNAJB6 / Fold change vs veh, DNAJB6 / RFU, CACNA2D3 / Fold change vs veh, CACNA2D3 / RFU, DTX4 / Fold change vs veh, DTX4 / RFU, TFCP2 / Fold change vs veh, TFCP2 / RFU, GMCL1 /// GMCL1P1 / Fold change vs veh, GMCL1 /// GMCL1P1 / RFU, AEBP2 / Fold change vs veh, AEBP2 / RFU, SNHG1 /// SNORD22 /// SNORD25 /// SNORD26 /// SNORD27 /// SNORD28 /// SNORD29 /// SNORD31 / Fold change vs veh, SNHG1 /// SNORD22 /// SNORD25 /// SNORD26 /// SNORD27 /// SNORD28 /// SNORD29 /// SNORD31 / Fold change (Aza/veh), C12orf56 (ProbeSet 11735607_a_at) / Fold change (ACY-1035/veh), C12orf56 (ProbeSet 11735607_a_at) / Fold change (Aza/veh), FGFR1OP (ProbeSet 11751329_s_at) / Fold change (ACY-1035/veh), FGFR1OP (ProbeSet 11751329_s_at) / Fold change (Aza/veh), VPS36 (ProbeSet 11739960_a_at) / Fold change (ACY-1035/veh), VPS36 (ProbeSet 11739960_a_at) / RFU SYPL1 (11715823_x_at) / Fold change /veh SYPL1 (11715823_x_at) / RFU IGFBP7 (11715501_s_at) / Fold change /veh IGFBP7 (11715501_s_at) / RFU REEP3 (11722064_at) / Fold change /veh REEP3 (11722064_at) / RFU IGLL1 (11728026_x_at) / Fold change /veh IGLL1 (11728026_x_at): dose or concentration left out as unconfirmed
Details: ProbeSet 11723944_a_at; LIST B

In the case of `Nc1ccc(-c2cccs2)cc1NC(=O)c1ccc2c(c1)cc(C1CC1)n2CCN1CCOCC1` [ACY-1035], the “RFU, PTTG1IP” value is reported as 718.82 RFU.
